Consider 16 compounds from patent US12570662B2, “Substituted pyrrolo[1,2-b]pyridazines as bifunctional degraders of interleukin-1 receptor-associated kinases” (Nurix Therapeutics, Inc., priority 2021, dated 2026).

The target in this test is T1, IRAK4 (Homo sapiens, UniProt Q9NWZ3).
T1 construct: C-terminal HiBiT-tagged Jurkat cells (polyclonal cell line or clone 8D5); endogenous in cells; host or cells: Jurkat cells (polyclonal cell line or clone 8D5), HiBiT-tagged
T1 sequence (Q9NWZ3 1-460): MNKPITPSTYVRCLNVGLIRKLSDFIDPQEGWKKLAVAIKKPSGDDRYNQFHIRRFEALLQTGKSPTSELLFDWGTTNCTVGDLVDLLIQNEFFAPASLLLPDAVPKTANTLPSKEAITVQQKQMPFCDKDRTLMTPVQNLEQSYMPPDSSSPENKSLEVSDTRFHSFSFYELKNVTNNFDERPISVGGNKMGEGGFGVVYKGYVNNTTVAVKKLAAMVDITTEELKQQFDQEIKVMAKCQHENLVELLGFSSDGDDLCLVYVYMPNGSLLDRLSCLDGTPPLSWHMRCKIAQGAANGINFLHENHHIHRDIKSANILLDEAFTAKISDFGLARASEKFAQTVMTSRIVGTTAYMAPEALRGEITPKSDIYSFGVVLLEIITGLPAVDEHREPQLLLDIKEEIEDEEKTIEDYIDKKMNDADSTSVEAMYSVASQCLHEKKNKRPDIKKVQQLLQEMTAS
The experiment in a line: IRAK4 Degradation HiBit Assay. The format is cell-based. The note with it: C-terminal HiBiT-tagged Jurkat cells, 4 hrs incubation; for DC50: % IRAK4 remaining, four-parameter fit (IC50 used as DC50); for Dmax: from fit of % IRAK4 remaining, read-out: Dmax. Summed up:
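Jurkat cells carrying C-terminal HiBiT-tagged IRAK4 (polyclonal or clone 8D5) exposed to compound, 10 μM–0.1 nM final over 11 points, for 4 h at 32 °C. Remaining IRAK4 measured by lytic HiBiT/LgBiT luminescence relative to DMSO. DC50 and Dmax taken from four-parameter variable-slope fits.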

As to `N#Cc1cnn2c(-c3cc(NC4CCOCC4)c(-c4nnc(N5CCN(C(=O)C6CCN(c7ccc(C8CCC(=O)NC8=O)cn7)CC6)CC5)s4)cn3)ccc2c1` (racemic) [Example 37, rac-7-(5-{5-[4-(1-{5-[(3R)-2,6-dioxopiperidin-3-yl]pyridin-2-yl}piperidine-4-carbonyl)piperazin-1-yl]-1,3,4-thiadiazol-2-yl}-4-[(oxan-4-yl)amino]pyridin-2-yl)pyrrolo[1,2-b]pyridazine-3-carbonitrile], it took 13 nM to reach half-maximal degradation (DC50) and the Dmax amounted to 108%.

As to `CNc1cc(-c2ccc3cc(C#N)cnn23)ncc1-c1nnc([C@H]2CC[C@H](CN3CCC(c4ccc([C@@H]5CCC(=O)NC5=O)cn4)CC3)CC2)s1` (racemic) [Example 38, 7-[4-(methylamino)-5-{5-[(1r,4r)-4-[(4-{5-[(3RS)-2,6-dioxopiperidin-3-yl]pyridin-2-yl}piperidin-1-yl)methyl]cyclohexyl]-1,3,4-thiadiazol-2-yl}pyridin-2-yl]pyrrolo[1,2-b]pyridazine-3-carbonitrile], half-maximal degradation (DC50) was put at 12 nM and the Dmax was 109%.

With `CNc1cc(-c2ccc3cc(C#N)cnn23)ncc1-c1nnc([C@H]2CC[C@H](C(=O)N3CCN(c4ccc([C@@H]5CCC(=O)NC5=O)cn4)CC3)CC2)s1` (racemic) [Example 39, 7-[4-(methylamino)-5-{5-[(1r,4r)-4-(4-{5-[(3RS)-2,6-dioxopiperidin-3-yl]pyridin-2-yl}piperazine-1-carbonyl)cyclohexyl]-1,3,4-thiadiazol-2-yl}pyridin-2-yl]pyrrolo[1,2-b]pyridazine-3-carbonitrile], half-maximal degradation (DC50) was put at 19 nM and the Dmax was 108%.

Regarding `CNc1cc(-c2ccc3cc(C#N)cnn23)ncc1-c1nnc(N2CC3(CCN(C(=O)C4CCN(c5ccc(C6CCC(=O)NC6=O)cn5)CC4)CC3)C2)s1` (racemic) [Example 40, rac-7-(5-{5-[7-(1-{5-[(3R)-2,6-dioxopiperidin-3-yl]pyridin-2-yl}piperidine-4-carbonyl)-2,7-diazaspiro[3.5]nonan-2-yl]-1,3,4-thiadiazol-2-yl}-4-(methylamino)pyridin-2-yl)pyrrolo[1,2-b]pyridazine-3-carbonitrile], the 50% degradation concentration (DC50) worked out at 19 nM and the Dmax came out at 114%.

With `N#Cc1cnn2c(-c3cc(NC4CCOCC4)c(-c4nnc(N5CCN(CC6CCN(c7ccc(C8CCC(=O)NC8=O)cn7)CC6)CC5)s4)cn3)ccc2c1` (racemic) [Example 43, 7-(5-{5-[4-({1-[5-(2,6-dioxopiperidin-3-yl)pyridin-2-yl]piperidin-4-yl}methyl)piperazin-1-yl]-1,3,4-thiadiazol-2-yl}-4-(oxan-4-ylamino)pyridin-2-yl)pyrrolo[1,2-b]pyridazine-3-carbonitrile], the 50% degradation concentration (DC50) turned out to be 14 nM and the Dmax was found to be 111%.

With `CNc1cc(-c2ccc3cc(C#N)cnn23)ncc1-c1nnc([C@H]2CC[C@H](CN3CCN(c4ccc([C@@H]5CCC(=O)NC5=O)cn4)CC3)CC2)s1` (racemic) [Example 44, 7-[4-(methylamino)-5-{5-[(1r,4r)-4-[(4-{5-[(3RS)-2,6-dioxopiperidin-3-yl]pyridin-2-yl}piperazin-1-yl)methyl]cyclohexyl]-1,3,4-thiadiazol-2-yl}pyridin-2-yl]pyrrolo[1,2-b]pyridazine-3-carbonitrile], it took 12 nM to reach half-maximal degradation (DC50) and the Dmax is 114%.

Consider `CNc1cc(-c2ccc3cc(C#N)cnn23)ncc1-c1nnc(N2CCN(C(=O)CC[C@@H]3CCN(c4ccc([C@@H]5CCC(=O)NC5=O)cn4)C3)CC2)s1` (racemic) [Example 45, 7-{5-[5-(4-{3-[(3RS)-1-{5-[(3RS&)-2,6-dioxopiperidin-3-yl]pyridin-2-yl}pyrrolidin-3-yl]propanoyl}piperazin-1-yl)-1,3,4-thiadiazol-2-yl]-4-(methylamino)pyridin-2-yl}pyrrolo[1,2-b]pyridazine-3-carbonitrile], for which the half-maximal degradation concentration (DC50) was 13 nM and the Dmax came out at 113%.

Take `CNc1cc(-c2ccc3cc(C#N)cnn23)ncc1-c1nnc(N2CC3CCC(C2)N3C(=O)C2CCN(c3ccc([C@H]4CCC(=O)NC4=O)cn3)CC2)s1` (racemic) [Example 46, rac-7-(5-{5-[8-(1-{5-[(3R)-2,6-dioxopiperidin-3-yl]pyridin-2-yl}piperidine-4-carbonyl)-3,8-diazabicyclo[3.2.1]octan-3-yl]-1,3,4-thiadiazol-2-yl}-4-(methylamino)pyridin-2-yl)pyrrolo[1,2-b]pyridazine-3-carbonitrile]: the DC50 was found to be 6 nM and the Dmax was determined as 111%.

Consider `CNc1cc(-c2ccc3cc(C#N)cnn23)ncc1-c1nnc(C23CCC(NC(=O)C4CCN(c5ccc(C6CCC(=O)NC6=O)cn5)CC4)(CC2)CC3)s1` (racemic) [Example 47, rac-N-{4-[5-(6-{3-cyanopyrrolo[1,2-b]pyridazin-7-yl}-4-(methylamino)pyridin-3-yl)-1,3,4-thiadiazol-2-yl]bicyclo[2.2.2]octan-1-yl}-1-{5-[(3R)-2,6-dioxopiperidin-3-yl]pyridin-2-yl}piperidine-4-carboxamide], for which half-maximal degradation (DC50) was put at 15 nM and the Dmax stood at 111%.

For `CC(C)Nc1cc(-c2ccc3cc(C#N)cnn23)ncc1-c1nnc(N2CCN(C(=O)C3CCN(c4ccc(C5CCC(=O)NC5=O)cn4)CC3)CC2)s1` (racemic) [Example 48, rac-7-(5-{5-[4-(1-{5-[(3R)-2,6-dioxopiperidin-3-yl]pyridin-2-yl}piperidine-4-carbonyl)piperazin-1-yl]-1,3,4-thiadiazol-2-yl}-4-[(propan-2-yl)amino]pyridin-2-yl)pyrrolo[1,2-b]pyridazine-3-carbonitrile], the DC50 was 23 nM and the Dmax amounted to 109%.

`CNc1cc(-c2ccc3cc(C#N)cnn23)ncc1-c1nnc([C@H]2CC[C@H](N(C)C(=O)C3CCN(c4ccc([C@@H]5CCC(=O)NC5=O)cn4)CC3)CC2)s1` (racemic) [Example 49, 1-{5-[(3RS)-2,6-dioxopiperidin-3-yl]pyridin-2-yl}-N-methyl-N-[(1r,4r)-4-[5-(6-{3-cyanopyrrolo[1,2-b]pyridazin-7-yl}-4-(methylamino)pyridin-3-yl)-1,3,4-thiadiazol-2-yl]cyclohexyl]piperidine-4-carboxamide]: the DC50 is 13 nM and the Dmax was 112%.

As for `CNc1cc(-c2ccc3cc(C#N)cnn23)ncc1-c1nnc(N2CCC(N3CCN(CC4CCN(c5ccc(C6CCC(=O)NC6=O)cn5)CC4)CC3)CC2)s1` (racemic) [Example 50, 7-[5-(5-{4-[4-({1-[5-(2,6-dioxopiperidin-3-yl)pyridin-2-yl]piperidin-4-yl}methyl)piperazin-1-yl]piperidin-1-yl}-1,3,4-thiadiazol-2-yl)-4-(methylamino)pyridin-2-yl]pyrrolo[1,2-b]pyridazine-3-carbonitrile], the 50% degradation concentration (DC50) worked out at 91 nM and the Dmax is 111%.

On to `CNc1cc(-c2ccc3cc(C#N)cnn23)ncc1-c1nnc(N2CCN(C(=O)C3CCN(c4ccc(C5CCC(=O)NC5=O)cn4)CC3)CC2)s1` (racemic) [Example 51, 7-{5-[5-(4-{1-[5-(2,6-dioxopiperidin-3-yl)pyridin-2-yl]piperidine-4-carbonyl}piperazin-1-yl)-1,3,4-thiadiazol-2-yl]-4-(methylamino)pyridin-2-yl}pyrrolo[1,2-b]pyridazine-3-carbonitrile], for which the half-maximal degradation concentration (DC50) was determined as 10 nM and the Dmax came to 112%.

On to `CNc1cc(-c2ccc3cc(C#N)cnn23)ncc1-c1nnc([C@H]2CC[C@H](N(C)CC3CCN(c4ccc([C@@H]5CCC(=O)NC5=O)cn4)CC3)CC2)s1` (racemic) [Example 52, 7-[4-(methylamino)-5-{5-[(1r,4r)-4-{[(1-{5-[(3RS)-2,6-dioxopiperidin-3-yl]pyridin-2-yl}piperidin-4-yl)methyl](methyl)amino}cyclohexyl]-1,3,4-thiadiazol-2-yl}pyridin-2-yl]pyrrolo[1,2-b]pyridazine-3-carbonitrile], for which it took 19 nM to reach half-maximal degradation (DC50) and the Dmax stood at 113%.

For the compound `CNc1cc(-c2ccc3cc(C#N)cnn23)ncc1-c1nnc(N2CCN(C3CCN(CC4CCN(c5ccc(C6CCC(=O)NC6=O)cn5)CC4)CC3)CC2)s1` (racemic) [Example 53, rac-7-{5-[5-(4-{1-[(1-{5-[(3R)-2,6-dioxopiperidin-3-yl]pyridin-2-yl}piperidin-4-yl)methyl]piperidin-4-yl}piperazin-1-yl)-1,3,4-thiadiazol-2-yl]-4-(methylamino)pyridin-2-yl}pyrrolo[1,2-b]pyridazine-3-carbonitrile], the half-maximal degradation concentration (DC50) worked out at 64 nM and the Dmax stood at 114%.

On to `CNc1cc(-c2ccc3cc(C#N)cnn23)ncc1-c1nnc(N2CCC(C3CCN(CC4CCN(c5ccc(C6CCC(=O)NC6=O)cn5)CC4)CC3)CC2)s1` (racemic) [Example 54, rac-7-[5-(5-{1′-[(1-{5-[(3R)-2,6-dioxopiperidin-3-yl]pyridin-2-yl}piperidin-4-yl)methyl]-[4,4′-bipiperidin]-1-yl}-1,3,4-thiadiazol-2-yl)-4-(methylamino)pyridin-2-yl]pyrrolo[1,2-b]pyridazine-3-carbonitrile], for which the 50% degradation concentration (DC50) was 95 nM and the Dmax worked out at 112%.
